Laboratory results taken from PubChem BioAssay AID2060506 (Molecular Pharmacology Branch, DTP, NCI, 2025).

System: 598228-144-R-J1-PDC complex spheroid viability
Assay: Anticancer human tumor 598228-144-R-J1-PDC patient-derived serous endometrial adenocarcinoma cell line growth inhibition [GQUAD]
Details: for IC50: curve of first compound; for viability, T/C: stronger effect = lower value
How it was run: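 Multi-cell-type spheroids of tumor cells with HUVEC and mesenchymal stem cells, treated with drug combinations. Concentrations descend in half-log steps from near clinical Cmax, or from 10 microM where Cmax is unknown; viability read-out.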

[1] = second compound 0.0316 µM, first compound 0.0316 µM
[2] = second compound 0.0316 µM, first compound 0.316 µM
[3] = second compound 0.1 µM, first compound 0.0316 µM
[4] = second compound 0.1 µM, first compound 0.316 µM
[5] = second compound 0.316 µM, first compound 0.0316 µM
[6] = second compound 0.316 µM, first compound 0.316 µM
[7] = second compound 1 µM, first compound 0.0316 µM
[8] = second compound 1 µM, first compound 0.316 µM
[9] = second compound 3.16 µM, first compound 0.0316 µM
[10] = second compound 3.16 µM, first compound 0.316 µM
[11] = second compound 10 µM, first compound 0.0316 µM
[12] = second compound 10 µM, first compound 0.316 µM
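Also: spheroids exposed to the agents for one week before reading.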
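For viability, T/C in this document: percent of vehicle DMSO control viability so 100% = untreated growth.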

## Cn1ncnc1[C@H]1c2n[nH]c(=O)c3cc(F)cc(c23)N[C@@H]1c1ccc(F)cc1 + CN(C)c1ccc(Nc2c3ccc(NC(=O)CCN4CCCC4)cc3nc3cc(NC(=O)CCN4CCCC4)ccc23)cc1
Second compound 0.0316 µM
  IC50: > 0.316 µM
Second compound 0.1 µM
  IC50: > 0.316 µM
Second compound 0.316 µM
  IC50: > 0.316 µM
Second compound 1 µM
  IC50: > 0.316 µM
Second compound 3.16 µM
  IC50: > 0.316 µM
Second compound 10 µM
  IC50: > 0.316 µM
Second compound 0.0316 µM, first compound 0.000999 µM
  viability, T/C: 118%
Second compound 0.0316 µM, first compound 0.00316 µM
  viability, T/C: 93.2%
Second compound 0.0316 µM, first compound 0.00999 µM
  viability, T/C: 103%
[1]
  viability, T/C: 86.3%
Second compound 0.0316 µM, first compound 0.0999 µM
  viability, T/C: 80.8%
[2]
  viability, T/C: 76.8%
Second compound 0.1 µM, first compound 0.000999 µM
  viability, T/C: 104%
Second compound 0.1 µM, first compound 0.00316 µM
  viability, T/C: 97.5%
Second compound 0.1 µM, first compound 0.00999 µM
  viability, T/C: 100%
[3]
  viability, T/C: 80.8%
Second compound 0.1 µM, first compound 0.0999 µM
  viability, T/C: 87.8%
[4]
  viability, T/C: 76.2%
Second compound 0.316 µM, first compound 0.000999 µM
  viability, T/C: 106%
Second compound 0.316 µM, first compound 0.00316 µM
  viability, T/C: 108%
Second compound 0.316 µM, first compound 0.00999 µM
  viability, T/C: 100%
[5]
  viability, T/C: 106%
Second compound 0.316 µM, first compound 0.0999 µM
  viability, T/C: 87.6%
[6]
  viability, T/C: 62%
Second compound 1 µM, first compound 0.000999 µM
  viability, T/C: 101%
Second compound 1 µM, first compound 0.00316 µM
  viability, T/C: 97.3%
Second compound 1 µM, first compound 0.00999 µM
  viability, T/C: 114%
[7]
  viability, T/C: 110%
Second compound 1 µM, first compound 0.0999 µM
  viability, T/C: 95.7%
[8]
  viability, T/C: 81.2%
Second compound 3.16 µM, first compound 0.000999 µM
  viability, T/C: 112%
Second compound 3.16 µM, first compound 0.00316 µM
  viability, T/C: 112%
Second compound 3.16 µM, first compound 0.00999 µM
  viability, T/C: 91.8%
[9]
  viability, T/C: 80.7%
Second compound 3.16 µM, first compound 0.0999 µM
  viability, T/C: 93.1%
[10]
  viability, T/C: 69.8%
Second compound 10 µM, first compound 0.000999 µM
  viability, T/C: 91.7%
Second compound 10 µM, first compound 0.00316 µM
  viability, T/C: 86.3%
Second compound 10 µM, first compound 0.00999 µM
  viability, T/C: 96.2%
[11]
  viability, T/C: 68.7%
Second compound 10 µM, first compound 0.0999 µM
  viability, T/C: 73.2%
[12]
  viability, T/C: 53.7%

## Cc1cccc(N(C)C(=O)C2C(O)CCN2c2nc(C)cc(C(F)(F)F)c2C#N)c1 (centres undefined) + CN(C)c1ccc(Nc2c3ccc(NC(=O)CCN4CCCC4)cc3nc3cc(NC(=O)CCN4CCCC4)ccc23)cc1
Second compound 0.0316 µM
  IC50: > 10 µM
Second compound 0.1 µM
  IC50: > 10 µM
Second compound 0.316 µM
  IC50: > 10 µM
Second compound 1 µM
  IC50: > 10 µM
Second compound 3.16 µM
  IC50: > 10 µM
Second compound 10 µM
  IC50: 3.95 µM
[1]
  viability, T/C: 114%
Second compound 0.0316 µM, first compound 0.1 µM
  viability, T/C: 96.9%
[2]
  viability, T/C: 98.3%
Second compound 0.0316 µM, first compound 1 µM
  viability, T/C: 105%
Second compound 0.0316 µM, first compound 3.16 µM
  viability, T/C: 91.5%
Second compound 0.0316 µM, first compound 10 µM
  viability, T/C: 103%
[3]
  viability, T/C: 103%
Second compound 0.1 µM, first compound 0.1 µM
  viability, T/C: 107%
[4]
  viability, T/C: 107%
Second compound 0.1 µM, first compound 1 µM
  viability, T/C: 108%
Second compound 0.1 µM, first compound 3.16 µM
  viability, T/C: 103%
Second compound 0.1 µM, first compound 10 µM
  viability, T/C: 84.9%
[5]
  viability, T/C: 94%
Second compound 0.316 µM, first compound 0.1 µM
  viability, T/C: 124%
[6]
  viability, T/C: 100%
Second compound 0.316 µM, first compound 1 µM
  viability, T/C: 125%
Second compound 0.316 µM, first compound 3.16 µM
  viability, T/C: 118%
Second compound 0.316 µM, first compound 10 µM
  viability, T/C: 113%
[7]
  viability, T/C: 98.5%
Second compound 1 µM, first compound 0.1 µM
  viability, T/C: 114%
[8]
  viability, T/C: 106%
Second compound 1 µM, first compound 1 µM
  viability, T/C: 101%
Second compound 1 µM, first compound 3.16 µM
  viability, T/C: 106%
Second compound 1 µM, first compound 10 µM
  viability, T/C: 111%
[9]
  viability, T/C: 114%
Second compound 3.16 µM, first compound 0.1 µM
  viability, T/C: 106%
[10]
  viability, T/C: 106%
Second compound 3.16 µM, first compound 1 µM
  viability, T/C: 95.2%
Second compound 3.16 µM, first compound 3.16 µM
  viability, T/C: 108%
Second compound 3.16 µM, first compound 10 µM
  viability, T/C: 86.4%
[11]
  viability, T/C: 96.6%
Second compound 10 µM, first compound 0.1 µM
  viability, T/C: 78.7%
[12]
  viability, T/C: 107%
Second compound 10 µM, first compound 1 µM
  viability, T/C: 86.5%
Second compound 10 µM, first compound 3.16 µM
  viability, T/C: 55.2%
Second compound 10 µM, first compound 10 µM
  viability, T/C: 29.1%
